Measured values: ChEMBL document CHEMBL1201862, “PubChem BioAssay data set” (2004)
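Values below derive from 48-hour exposures of cells grown in 96-well plates, with endpoints linearly interpolated between the two concentrations bracketing the appropriate inhibition level. GI50 marks 50% less growth.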 Activity calls are given as the source filed them. No stated cut-off is given here; in the data, active = GI50 up to about 1.1 µM and inactive = higher.

How the values were obtained:
Test in all cases: NCI-60 cell line screen, 48 h
SN12C = system: SN12C
IGROV-1 = system: IGROV-1
SK-MEL-5 = system: SK-MEL-5
KM12 = system: KM12
NCI-H522 = system: NCI-H522
HL-60 = system: HL-60
SK-OV-3 = system: SK-OV-3
OVCAR-8 = system: OVCAR-8
A549 = system: A549
MOLT-4 = system: MOLT-4
HCT-15 = system: HCT-15
HCT-116 = system: HCT-116
EKVX = system: EKVX
HOP-62 = system: HOP-62
SF-268 = system: SF-268
UO-31 = system: UO-31
SNB-19 = system: SNB-19
K562 = system: K562
NCI-H460 = system: NCI-H460
SNB-75 = system: SNB-75

| Compound | GI50 (SN12C) | GI50 (IGROV-1) | GI50 (SK-MEL-5) | GI50 (KM12) | GI50 (NCI-H522) | GI50 (HL-60) | GI50 (SK-OV-3) | GI50 (OVCAR-8) | GI50 (A549) | GI50 (MOLT-4) | GI50 (HCT-15) | GI50 (HCT-116) | GI50 (EKVX) | GI50 (HOP-62) | GI50 (SF-268) | GI50 (UO-31) | GI50 (SNB-19) | GI50 (K562) | GI50 (NCI-H460) | GI50 (SNB-75) |
| --- | --- | --- | --- | --- | --- | --- | --- | --- | --- | --- | --- | --- | --- | --- | --- | --- | --- | --- | --- | --- |
| Cc1ccc(C2NC(=O)c3ccccc3N2)s1 (stereo not drawn) | 4.79 µM (inactive) | 6.67 µM (inactive) | 2.88 µM (inactive) | 4.61 µM (inactive) | 4.26 µM (inactive) | 2.92 µM (inactive) | 5.4 µM (inactive) | 8.43 µM (inactive) | 8.83 µM (inactive) | 3.07 µM (inactive) | 4.09 µM | 6.31 µM (inactive) | > 100 µM (inactive) | 4.37 µM (inactive) | 8 µM (inactive) | 7.38 µM (inactive) | 59.6 µM (inactive) | 3.2 µM (inactive) | 4.25 µM (inactive) | – |
| CCCCOC(=O)NC(Nc1ccc(S(N)(=O)=O)cc1)(C(F)(F)F)C(F)(F)F | > 100 µM (inactive) | – | – | > 100 µM (inactive) | > 100 µM (inactive) | > 100 µM (inactive) | > 100 µM (inactive) | – | – | > 100 µM (inactive) | > 100 µM | > 100 µM (inactive) | > 100 µM (inactive) | > 100 µM (inactive) | > 100 µM (inactive) | 79.8 µM (inactive) | > 100 µM (inactive) | > 100 µM (inactive) | > 100 µM (inactive) | > 100 µM (inactive) |
| CCOC(=O)/C(=N/Nc1ccccc1)N1C(=S)N(C)N=C(C)C=C1S | > 100 µM (inactive) | > 100 µM (inactive) | > 100 µM (inactive) | > 100 µM (inactive) | 27 µM (inactive) | > 100 µM (inactive) | > 100 µM (inactive) | > 100 µM (inactive) | > 100 µM (inactive) | > 100 µM (inactive) | > 100 µM | > 100 µM (inactive) | > 100 µM (inactive) | – | 6.82 µM (inactive) | > 100 µM (inactive) | > 100 µM (inactive) | > 100 µM (inactive) | > 100 µM (inactive) | 10 µM (inactive) |
| OCc1ccccc1C1CSCSC1 | > 100 µM (inactive) | – | > 100 µM (inactive) | > 100 µM (inactive) | > 100 µM (inactive) | > 100 µM (inactive) | > 100 µM (inactive) | > 100 µM (inactive) | > 100 µM (inactive) | > 100 µM (inactive) | > 100 µM | > 100 µM (inactive) | – | – | > 100 µM (inactive) | > 100 µM (inactive) | – | > 100 µM (inactive) | > 100 µM (inactive) | > 100 µM (inactive) |
| CC1(c2nc3ccccc3[nH]2)CCC(CO)C(C)(C)O1 (stereo not drawn) | > 100 µM (inactive) | > 100 µM (inactive) | > 100 µM (inactive) | > 100 µM (inactive) | > 100 µM (inactive) | > 100 µM (inactive) | > 100 µM (inactive) | > 100 µM (inactive) | > 100 µM (inactive) | > 100 µM (inactive) | > 100 µM | > 100 µM (inactive) | > 100 µM (inactive) | > 100 µM (inactive) | > 100 µM (inactive) | 98.6 µM (inactive) | > 100 µM (inactive) | > 100 µM (inactive) | – | > 100 µM (inactive) |
| COc1ccc(/C=N/n2cnc3[nH]c(C)c(Cc4ccccc4)c3c2=N)cc1 | 92 µM (inactive) | 39.7 µM (inactive) | > 100 µM (inactive) | > 100 µM (inactive) | 65 µM (inactive) | > 100 µM (inactive) | > 100 µM (inactive) | 90.6 µM (inactive) | 89.5 µM (inactive) | 52.1 µM (inactive) | > 100 µM | > 100 µM (inactive) | > 100 µM (inactive) | > 100 µM (inactive) | 72.9 µM (inactive) | > 100 µM (inactive) | > 100 µM (inactive) | – | 81.7 µM (inactive) | 71.9 µM (inactive) |
| Nc1c2c(=O)[nH]c(=O)c2c(N)c2c(=O)c3ccccc3c(=O)c12 | 1.52 µM (inactive) | 1.65 µM (inactive) | 0.179 µM (active) | 1.83 µM (inactive) | 3.35 µM (inactive) | 2 µM (inactive) | 7.23 µM (inactive) | 1.82 µM (inactive) | 0.897 µM (active) | 3.68 µM (inactive) | 1.36 µM | 4.6 µM (inactive) | 3.17 µM (inactive) | 3.13 µM (inactive) | 2.65 µM (inactive) | 3.81 µM (inactive) | 3.29 µM (inactive) | 3.02 µM (inactive) | 0.869 µM (active) | – |
| CC(C(=O)COCc1ccccc1)P1(=O)OC(C)(C)CN1C(C)(C)C (stereo not drawn) | > 100 µM (inactive) | – | > 100 µM (inactive) | > 100 µM (inactive) | > 100 µM (inactive) | > 100 µM (inactive) | > 100 µM (inactive) | > 100 µM (inactive) | > 100 µM (inactive) | > 100 µM (inactive) | > 100 µM | > 100 µM (inactive) | > 100 µM (inactive) | > 100 µM (inactive) | > 100 µM (inactive) | > 100 µM (inactive) | – | – | > 100 µM (inactive) | 54.7 µM (inactive) |
| c1ccc(C(NCC2CCO2)(c2ccccc2)c2ccccc2)cc1 (stereo not drawn) | 22.8 µM (inactive) | 15.2 µM (inactive) | 25.6 µM (inactive) | 15 µM (inactive) | 13.5 µM (inactive) | 19.3 µM (inactive) | 19.7 µM (inactive) | 12.6 µM (inactive) | 15.2 µM (inactive) | 30.2 µM (inactive) | 16.4 µM | 21.5 µM (inactive) | 16.2 µM (inactive) | – | – | 12.8 µM (inactive) | 13.7 µM (inactive) | 34.1 µM (inactive) | 16.4 µM (inactive) | 15.2 µM (inactive) |
| O=C(/C(=C/c1ccc(O)cc1)c1ccccc1)c1ccccc1 | 18.4 µM (inactive) | 18.7 µM (inactive) | 15 µM (inactive) | 15.7 µM (inactive) | 15.2 µM (inactive) | 13.6 µM (inactive) | 20.8 µM (inactive) | 27 µM (inactive) | 18 µM (inactive) | 15.4 µM (inactive) | 18 µM | 16.7 µM (inactive) | 20 µM (inactive) | 19.3 µM (inactive) | 17.3 µM (inactive) | 15.4 µM (inactive) | – | 17.8 µM (inactive) | 18.7 µM (inactive) | 16.7 µM (inactive) |
| CCCCCCCCCC/C=C/C=O | > 100 µM (inactive) | > 100 µM (inactive) | > 100 µM (inactive) | > 100 µM (inactive) | > 100 µM (inactive) | 56.1 µM (inactive) | > 100 µM (inactive) | > 100 µM (inactive) | > 100 µM (inactive) | 70.3 µM (inactive) | > 100 µM | > 100 µM (inactive) | > 100 µM (inactive) | – | > 100 µM (inactive) | > 100 µM (inactive) | > 100 µM (inactive) | > 100 µM (inactive) | > 100 µM (inactive) | > 100 µM (inactive) |
| C1CCC(OCc2nnn3c2CCC3)OC1 (stereo not drawn) | > 100 µM (inactive) | > 100 µM (inactive) | > 100 µM (inactive) | > 100 µM (inactive) | > 100 µM (inactive) | > 100 µM (inactive) | > 100 µM (inactive) | > 100 µM (inactive) | > 100 µM (inactive) | > 100 µM (inactive) | > 100 µM | > 100 µM (inactive) | > 100 µM (inactive) | > 100 µM (inactive) | – | > 100 µM (inactive) | – | > 100 µM (inactive) | > 100 µM (inactive) | > 100 µM (inactive) |
